This test deals with T1, MoOxdC (Pyricularia oryzae, UniProt G4NLF1).
T1 construct: gene MGG_14061
The conditions noted are these: 50 mM citrate pH 4.0, 37 °C, 30 min; 0.2 mL of 8 mM oxalic acid in 1.5 mL; no added metal.

T1 sequence (G4NLF1 1-500 limits assumed): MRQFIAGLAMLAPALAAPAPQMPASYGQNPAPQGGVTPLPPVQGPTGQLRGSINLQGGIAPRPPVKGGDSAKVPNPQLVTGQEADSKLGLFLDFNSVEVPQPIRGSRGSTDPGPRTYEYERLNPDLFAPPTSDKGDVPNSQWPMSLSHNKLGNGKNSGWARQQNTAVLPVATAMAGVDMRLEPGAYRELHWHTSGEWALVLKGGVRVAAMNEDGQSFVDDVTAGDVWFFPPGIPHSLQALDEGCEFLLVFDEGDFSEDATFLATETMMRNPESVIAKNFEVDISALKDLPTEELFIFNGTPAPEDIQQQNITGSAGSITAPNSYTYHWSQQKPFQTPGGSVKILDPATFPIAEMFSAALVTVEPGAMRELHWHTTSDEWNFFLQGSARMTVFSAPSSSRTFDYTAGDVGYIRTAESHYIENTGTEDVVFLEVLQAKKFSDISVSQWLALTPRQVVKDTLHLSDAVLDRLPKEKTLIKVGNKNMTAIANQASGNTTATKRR

In the case of `O=C(O)C(=O)O` [oxalic acid], the “residual oxalic acid by Fe(III)-sulfosalicylate absorbance at 510 nm; formic aci” value was “The oxalate decarboxylase activity of the purified recombinant MoOxdC protein was analyzed”.

The values above are taken from article PMC11776485 (Virulence, 2025).
